Laboratory results taken from patent publication US5110976A, “Insecticidal composition comprising more than one active ingredient” (priority 1985, dated 1992).
Values after ≈ are worked out from the molar mass of the structure shown.

Assays:
Musca domestica [1] = test: Comparative contact test (Table 15); assay type: in vivo, house fly (Musca domestica), imago; conditions: 24 h
Method: (§1) The active ingredient is dissolved in a 1:2 mixture of oil and acetone; filter paper discs (Whatman No. 1, diameter 9 cm) are impregnated with the solutions of the corresponding stereoisomers and enantiomer-pairs, respectively. The acetone is allowed to evaporate, whereupon the insects are exposed to filter papers discs placed in Petri-dishes. Three parallels are used on each dose and 15 insects are placed into each Petri-dish. The percental mortality is determined after 24 hours. The corrected percent mortality is calculated by means of the Abbot Formula.
(§2) The comparative test of Ia, Ib and a 40:60 mixture of Ia:Ib is carried out on bean weevil (Acanthoscelides obtectus), flour-beetle, (Tribolium confusum), house fly (Musca domestica) and sheep maggot fly (Lucillia sericata). The test method described is Example 41.

T. confusum = test: Activity as function of time, toxic symptoms (Table 16); assay type: in vivo, flour beetle (T. confusum), imagos
Summary of the method: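 T. confusum imagos exposed in Petri dishes to filter-paper discs impregnated with isomer solutions in 1:2 oil/acetone, acetone evaporated; 3 replicates of 15 insects per dose. Insects lying on their backs counted at successive time points, expressed as percent.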

Hyphantria cunea = test: Topical test on fall webworm (Table 18); assay type: in vivo, fall wetworm (Hyphantria cunea), L7-L8 larvae; conditions: for 24 hours' mortality: 1440 min
Method: The active ingredients are dissolved in 2-ethoxy-ethanol and the solutions are applied in the form of 0.2 μl droplets onto the back of fall wetworm (Hyphantria cunea) of L7 -L8 larvae stage. The treated worms are placed on strawberry leaves in Petri-dishes. The test is carried out by using […], 2 parallels and 10 insects for each dose. The killed worms are counted after 24 hours and the percental mortality rate is calculated.

Colorado potato beetle = test: Topical test on Colorado potato beetle (Table 14); assay type: in vivo, Colorado potato beetle (Leptinotersa decemlineata), imago
Method: In Table 14 the activity on Colorado potato beetle is shown.
The test materials are dissolved in 2-ethoxyethanol (Cellosolve). One 0.3 μl drop of the solution is applied to the abdominal sterna of the imago. The treatment is carried out by using 2 parallels and 10 insects for each dose. […]

tribolium confusum [2] = test: Comparative contact test (Table 15); assay type: in vivo, flour-beetle (Tribolium confusum), imago; conditions: 24 h
Method: as §1, §2

Musca domestica [3] = test: Filter paper disc contact test (Table 11); assay type: in vivo, house fly (Musca domestica)
Summary of the method: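 Stereoisomers in 1:2 oil/acetone were applied to 9 cm filter paper discs, the acetone evaporated, and discs placed in Petri dishes with 15 flies each, three replicates per dose. Mortality was scored at 24 h and corrected by Abbott's formula.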

A. matricariae = test: Direct contact test on pupae (Table 26); assay type: in vivo
Method: Mature pupae of A. matricariae on paprika leaves in Petri-dishes are exposed to a direct spray of the active ingredients. Two or three days before emergence paprika leaves with parasitized pupae are used. The leaves are laid on moistened filter paper in a plastic Petri-dish.
Application of treatment: See Example 57.
The pieces of leaf are transferred after treatment to clean Petri-dish bottoms. The trays are stored in a climatic chamber at 20° C. temperature, 70% relative humidity and a light-dark cycle of 16-8 h. Surviving pupae hatch after 2-3 days. The numbers of hatched and dead pupae are counted.

Lucillia sericata = test: Comparative contact test (Table 15); assay type: in vivo, sheep maggot fly (Lucillia sericata), imago; set-up: key: % mortality after 24 h, Abbott-corrected; conditions: 1440 min
Method: as §1, §2

Tribolium confusum [4] = test: Contact test, mixtures of Ia and Ib of various ratio (Table 13); assay type: in vivo, flour beetle (Tribolium confusum)
Summary of the method: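 Compounds in 1:2 oil/acetone impregnated onto 9 cm filter paper discs; after acetone evaporation, 15 beetles per Petri dish, three replicates per dose. Mortality read at 24 h and corrected by Abbott formula; Ia/Ib enantiomer-pair mixtures tested at various ratios.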

Acanthoscelides obtectus = test: Comparative contact test (Table 15); assay type: in vivo, bean weevil (Acanthoscelides obtectus), imago; conditions: Acanthoscelides obtectus, 24 h
Method: as §1, §2

Tetranychus urticae = test: Potter Tower spray on mite-infested leaves (Table 19); assay type: in vivo, mites (Tetranychus urticae); conditions: Tetranychus urticae, 24 h, mortality after 24 hours; read-out: approx. LD50
Method: Leaves already infested with mites (Tetranychus urticae) were sprayed under Potter Tower. Mortality after 24 hours on the treated leaves was compared with the control.

Tribolium confusum [5] = test: Contact test on Tribolium confusum (Table 12); assay type: in vivo; conditions: Tribolium confusum, 24 h
Summary of the method: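 Compound in 1:2 oil/acetone impregnated onto 9 cm filter paper discs; after acetone evaporation, 15 insects per Petri dish exposed by contact, three replicates per dose. Mortality read at 24 hours and corrected by Abbott's formula.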

Q: Which mortality at 20 µg/disc (Musca domestica [1]; 0.02 mg/disc) does the source give for `CC1(C)C(C=C(Cl)Cl)C1C(=O)OC(C#N)c1cccc(Oc2ccccc2)c1` (centres unmarked) [Ia:Ib = 4:6] here?
A: 25%

Q: What about the mortality at 70 µg/disc (Musca domestica [1]; 0.07 mg/disc) of the same compound?
A: 45%

Q: What about the mortality at 220 µg/disc (Musca domestica [1]; 0.22 mg/disc) of the same compound?
A: 85%

Q: And the mortality at 670 µg/disc (Musca domestica [1]; 0.67 mg/disc)?
A: 100%

Q: And the mortality at 2000 µg/disc (Musca domestica [1]; 2.0 mg/disc)?
A: 100%

Q: What about the mortality at 6000 µg/disc (Musca domestica [1]; 6.0 mg/disc) of the same compound?
A: 100%

Q: And the “% of insects showing toxic symptoms” value (T. confusum; 30 minutes)?
A: 0%

Q: And the “% of insects showing toxic symptoms” value (T. confusum; 30 minutes, 0.33 mg/disc)?
A: 0%

Q: And the “% of insects showing toxic symptoms” value (T. confusum; 30 minutes, 1.00 mg/disc)?
A: 50%

Q: What about the “% of insects showing toxic symptoms” value (T. confusum; 30 minutes, 3.00 mg/disc) of the same compound?
A: 55%

Q: What about the “% of insects showing toxic symptoms” value (T. confusum; 60 minutes) of the same compound?
A: 15%

Q: What about the “% of insects showing toxic symptoms” value (T. confusum; 60 minutes, 0.33 mg/disc) of the same compound?
A: 85%

Q: And the “% of insects showing toxic symptoms” value (T. confusum; 60 minutes, 1.00 mg/disc)?
A: 85%

Q: What about the “% of insects showing toxic symptoms” value (T. confusum; 60 minutes, 3.00 mg/disc) of the same compound?
A: 100%

Q: What about the “% of insects showing toxic symptoms” value (T. confusum; 120 minutes) of the same compound?
A: 30%

Q: What about the “% of insects showing toxic symptoms” value (T. confusum; 120 minutes, 0.33 mg/disc) of the same compound?
A: 100%

Q: And the “% of insects showing toxic symptoms” value (T. confusum; 120 minutes, 1.00 mg/disc)?
A: 100%

Q: And the “% of insects showing toxic symptoms” value (T. confusum; 120 minutes, 3.00 mg/disc)?
A: 100%

Q: And the “% of insects showing toxic symptoms” value (T. confusum; 180 minutes)?
A: 55%

Q: And the “% of insects showing toxic symptoms” value (T. confusum; 180 minutes, 0.33 mg/disc)?
A: 100%

Q: And the “% of insects showing toxic symptoms” value (T. confusum; 180 minutes, 1.00 mg/disc)?
A: 100%

Q: And the “% of insects showing toxic symptoms” value (T. confusum; 180 minutes, 3.00 mg/disc)?
A: 100%

Q: What about the “24 hours' mortality” value (Hyphantria cunea; 0.023 (μg/disc)) of the same compound?
A: 40%

Q: What about the “24 hours' mortality” value (Hyphantria cunea; 0.047 (μg/disc)) of the same compound?
A: 50%

Q: And the “24 hours' mortality” value (Hyphantria cunea; 0.094 (μg/disc))?
A: 55%

Q: And the mortality at 0.188 µg/disc (Hyphantria cunea; Hyphantria cunea, topical, 24 h, 0.188 (μg/disc))?
A: 65%

Q: And the mortality at 0.375 µg/disc (Hyphantria cunea; Hyphantria cunea, topical, 24 h, 0.375 (μg/disc))?
A: 75%

Q: And the “24 hours' mortality %” value (Colorado potato beetle; 0.05 μg/beetle)?
A: 45%

Q: What about the “24 hours' mortality %” value (Colorado potato beetle; 0.10 μg/beetle) of the same compound?
A: 60%

Q: And the “24 hours' mortality %” value (Colorado potato beetle; 0.20 μg/beetle)?
A: 70%

Q: What about the mortality at 0.4 µg/beetle (Colorado potato beetle; Leptinotarsa decemlineata, topical, read-out: 24 hours' mortality %, 0.40 μg/beetle) of the same compound?
A: 80%

Q: What about the mortality at 20 µg/disc (tribolium confusum [2]; 0.02 mg/disc) of the same compound?
A: 16%

Q: And the mortality at 70 µg/disc (tribolium confusum [2]; 0.07 mg/disc)?
A: 80%

Q: And the mortality at 220 µg/disc (tribolium confusum [2]; 0.22 mg/disc)?
A: 100%

Q: And the mortality at 670 µg/disc (tribolium confusum [2]; 0.67 mg/disc)?
A: 100%

Q: What about the mortality at 2000 µg/disc (tribolium confusum [2]; 2.0 mg/disc) of the same compound?
A: 100%

Q: And the mortality at 6000 µg/disc (tribolium confusum [2]; 6.0 mg/disc)?
A: 100%

Q: And the mortality at 40 µg/disc (Musca domestica [3]; Musca domestica, 24 h, 0.04 mg/disc)?
A: 41%

Q: What about the mortality at 110 µg/disc (Musca domestica [3]; Musca domestica, 24 h, 0.11 mg/disc) of the same compound?
A: 81%

Q: What about the mortality at 330 µg/disc (Musca domestica [3]; Musca domestica, 24 h, 0.33 mg/disc) of the same compound?
A: 100%

Q: What about the mortality at 1000 µg/disc (Musca domestica [3]; Musca domestica, 24 h, 1.00 mg/disc) of the same compound?
A: 100%

Q: What about the mortality at 3000 µg/disc (Musca domestica [3]; Musca domestica, 24 h, 3.00 mg/disc) of the same compound?
A: 100%

Q: And the comparative activity (Musca domestica [3]; mixture versus Ia)?
A: corresponds to that of the pure isomer Ia

Q: And the Mortality % (A. matricariae; 1 ppm)?
A: 0%

Q: What about the Mortality % (A. matricariae; 5 ppm) of the same compound?
A: 0%

Q: What about the Mortality % (A. matricariae; 10 ppm) of the same compound?
A: 0%

Q: And the Mortality % (A. matricariae; 33 ppm)?
A: 14.3%

Q: What about the mortality (Lucillia sericata; 0.02 mg/disc) of the same compound?
A: 18

Q: What about the mortality (Lucillia sericata; 0.07 mg/disc) of the same compound?
A: 50

Q: What about the mortality (Lucillia sericata; 0.22 mg/disc) of the same compound?
A: 60

Q: And the mortality (Lucillia sericata; 0.67 mg/disc)?
A: 75

Q: And the mortality (Lucillia sericata; 2.0 mg/disc)?
A: 100

Q: What about the mortality (Lucillia sericata; 6.0 mg/disc) of the same compound?
A: 100

Q: And the “24 hours' mortality %” value (Tribolium confusum [4]; 0.02 mg/disc, 1440 min)?
A: 14%

Q: What about the “24 hours' mortality %” value (Tribolium confusum [4]; 0.06 mg/disc, 1440 min) of the same compound?
A: 53%

Q: What about the “24 hours' mortality %” value (Tribolium confusum [4]; 0.25 mg/disc) of the same compound?
A: 100%

Q: What about the “24 hours' mortality %” value (Tribolium confusum [4]; 1.00 mg/disc) of the same compound?
A: 100%

Q: What about the mortality at 20 µg/disc (Acanthoscelides obtectus; 0.02 mg/disc) of the same compound?
A: 30%

Q: And the mortality at 70 µg/disc (Acanthoscelides obtectus; 0.07 mg/disc)?
A: 55%

Q: What about the mortality at 220 µg/disc (Acanthoscelides obtectus; 0.22 mg/disc) of the same compound?
A: 90%

Q: And the mortality at 670 µg/disc (Acanthoscelides obtectus; 0.67 mg/disc)?
A: 100%

Q: What about the mortality at 2000 µg/disc (Acanthoscelides obtectus; 2.0 mg/disc) of the same compound?
A: 100%

Q: And the mortality at 6000 µg/disc (Acanthoscelides obtectus; 6.0 mg/disc)?
A: 100%

Q: And the LC50 (Tetranychus urticae)?
A: ~0.06 µg/mL (≈ 0.144 µM)

Q: And the mortality at 110 µg/disc (Tribolium confusum [5]; 0.11 mg/disc)?
A: 61%

Q: And the mortality at 330 µg/disc (Tribolium confusum [5]; 0.33 mg/disc)?
A: 89%

Q: What about the mortality at 1000 µg/disc (Tribolium confusum [5]; 1.00 mg/disc) of the same compound?
A: 100%

Q: What about the mortality at 3000 µg/disc (Tribolium confusum [5]; 3.00 mg/disc) of the same compound?
A: 100%
